Patent US6413537B1, “Nystatin formulation having reduced toxicity” (Wisconsin Alumni Research Foundation, priority 2000, dated 2002)
Converted amounts (≈) assume the structure as drawn. Where two headings read alike, the source gives them in different places.

Legend:
[1] = system: erythrocytes (red blood cells)
[2] = system: Saccharomyces cerevisiae; test: Minimal fungicidal concentration (MFC); assay type: cell-based; conditions: 2 hrs contact at 37° C., no colony on YPD agar plate after 24 hr at 30° C.
Description: For measurement of minimal fungicidal concentration (MFC), the same procedure as the MIC measurement was employed up to the incubation step. Tubes containing Saccharomyces cerevisiae were placed in an incubator at 37° C. for 2 hrs., so that the cells might be killed. After 2 hrs. contact with the sample, the surviving cells were precipitated on the bottom of the tube by centrifugation (12000 g, 20 sec), and the supernatant decanted. […] All experiments were repeated three times. The MFC for the compositions in accordance with the present invention was determined to be 3 μg/mL.

[3] = system: Saccharomyces cerevisiae, ATCC 4921; test: Minimal inhibitory concentration (MIC) in YPD broth; assay type: cell-based; conditions: 30° C., 24 hr, full inhibition by optical density at 600 nm
Description: NF samples were dissolved into DMSO and diluted with Bacto® YPD broth medium (10 g of Bacto® YPD in 200 mL of distilled water, and sterilized at 121° C.-124° C.), to give a nystatin level of 8 μg/mL. Nystatin levels were varied by serial dilution with broth medium to a level of 0.1 μg/mL. An aliquot (800 μL) of each nystatin sample was put into a microcentrifuge tube. 50 μL of the inoculum, containing 5×10^3 cfu/mL of Saccharomyces cerevisiae, ATCC 4921, in sterile distilled water, was added to each tube to give a total volume of 850 μL per tube. The tubes were incubated at 30° C. for 24 hr. A solvent control, Pluronic F127® control, and medium control were performed simultaneously to check the growth inhibiting activities of DMSO and Pluronic F127® as well as the sterility of the broth medium. […] The MIC for the nystatin formulations in accordance with the present invention was determined to be 3 μg/mL. The MIC of nystatin alone for Saccharomyces cerevisiae is about 3 μg/mL.

[4] = Solubility measurement of freeze-dried nystatin formulations (NF) in distilled water; assay type: physicochemical; conditions: vortex mixed 5 min, 0.45 μm filtered, absorption at 307 nm
Description: An excess amount of each NF formulation from Example 1 was placed into 0.5 mL of distilled water, and mixed vigorously for 5 min with a vortex mixer. After filtering the slurry with a 0.45 μm syringe filter, the filtrate was diluted with dimethylformamide (DMF) for analysis. The amount of nystatin in each NF composition was calculated by absorption spectroscopy at 307 nm.

[5] = Critical aggregation concentration (CAC) of nystatin by light scattering; assay type: physicochemical
Description: Nystatin (16 mg) was dissolved into 0.3 mL of dimethylsulfoxide (DMSO) under light protection, and was added into 15 mL of various aqueous Pluronic F127® solutions ranging from 0.1%-2.0%, making a 1100 μM nystatin solution. Each solution was serially diluted with the corresponding Pluronic F127® solution until a 3.8 μM nystatin concentration was obtained. After incubation at 37° C. for 30 min, each solution was subjected to light scattering using fluorimeter with fixed excitation wavelength of 450 nm. Band widths for excitation and emission were set at 3 nm and 1.5 nm, respectively. […] The intersection point of two linear lines was defined as the critical aggregation concentration (CAC) where self-aggregation of nystatin molecules begins, leading to an abrupt increase of intensity of scattered light.

[6] = Monomerizing (light scattering) effect of various surfactants on nystatin; assay type: physicochemical; conditions: nystatin kept constant at 200 μM; FIG. 7
Description: Nystatin formulations were prepared with various surfactants similar to the method of Example 1. The concentration of drug was kept constant at 200 μM. The intensity of the scattered light was measured using a fluorimeter with a fixed excitation wavelength of […].

For `C[C@@H]1[C@H](O)[C@@H](C)/C=C/C=C/CC/C=C/C=C/C=C/C=C/C(O[C@H]2O[C@H](C)[C@@H](O)[C@H](N)[C@@H]2O)CC2O[C@](O)(CC(O)C(O)CCC(O)CC(O)CC(O)CC(=O)O[C@H]1C)CC(O)C2C(=O)O` (stereo partly shown) [pure Nys, Nystatin], which “concentration of nystatin causing 50% hemolysis” value ([1]; PBS pH 7.0 containing 0.1% Pluronic F127, FIG. 4) is on record?
Its value is ~120 µg/mL.

What about the “concentration of nystatin causing 50% hemolysis” value ([1]; PBS pH 7.0 containing 2% Pluronic F127, FIG. 4) of the same compound?
The value was ~270 µg/mL.

What about the “50% hemolysis inducing level of Nys” value ([1]; Table 1, erythrocytes in isotonic PBS, 37° C., 30 min) of the same compound?
Its value is 60 µg/mL.

And the “concentration of nystatin causing 50% hemolysis” value ([1]; isotonic PBS, FIG. 3)?
Its value is “about 55 μg/mL”.

And the “minimal fungicidal concentration (MFC)” value [2]?
The value was 12 µg/mL (≈ 13 µM).

And the “minimal inhibitory concentration (MIC)” value [3]?
The value was “about 3 μg/mL”.

What about the Solubility [4] of the same compound?
Its Solubility is 540 µg/mL (≈ 583 µM).

What about the Solubility ([4]; listed as pure nystatin) of the same compound?
Its Solubility is 500 µg/mL (≈ 540 µM).

What about the CAC ([5]; distilled water alone) of the same compound?
The CAC was 52.8 µM.

What about the CAC ([5]; distilled water containing 0.1% Pluronic F127, 37° C. 30 min) of the same compound?
The CAC was 50.1 µM.

And the CAC ([5]; distilled water containing 0.5% Pluronic F127, 37° C. 30 min)?
Its CAC is 108.0 µM.

And the CAC ([5]; distilled water containing 1.0% Pluronic F127, 37° C. 30 min)?
The CAC was 134.2 µM.

What about the CAC ([5]; distilled water containing 1.5% Pluronic F127, 37° C. 30 min) of the same compound?
The CAC was 154.3 µM.

And the CAC ([5]; distilled water containing 2.0% Pluronic F127, 37° C. 30 min)?
Its CAC is 217.9 µM.

For “sorbitan mono-9-octadecanoate [Tween 80®]”, which “concentration of surfactant alone causing 50% hemolysis” value [1] is on record?
Its value is “less than 50 μg/mL”.

And the “surfactant level showing deaggregating activity (decrease of light scattering intensity)” value [6]?
The value was “about 100 μM”.
